From PubChem BioAssay (NCI) come the findings set out here.

SMILES strings stand for the structures.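 48-hour exposure; five concentrations; linearly interpolated endpoints. GI50 is the concentration that inhibits growth by half. TGI: concentration producing complete growth inhibition.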 A value given as a limit tells only on which side of the number the result lay.

What all share (assay): NCI-60 cell line screen, 48 h
Experiment [1] relates to HL-60(TB) leukemia.
Experiment [2] concerns MALME-3M melanoma.
Experiment [3] deals with NCI-H23 lung.
The subject of experiment [4] is NCI-H522 lung.
Experiment [5] has as its system SF-295 CNS.
For experiment [6], the system named is SNB-19 CNS.
In experiment [7] the test system is MDA-MB-231 breast.
Experiment [8] concerns MDA-N.
Experiment [9] has as its system PC-3 prostate.
Experiment [10] concerns MCF7 breast.

As for `C[C@H](CCC1SC1(C)C)C1CCC2(C)C3=C(CC[C@]12C)[C@@]1(C)CC[C@H](O)C(C)(C)C1CC3` (stereo partly drawn), the TGI in experiment [1], in experiment [2], in experiment [3], in experiment [4], in experiment [5] and in experiment [6] was over 100 µM each time.

As for `C[C@@H]1CC(=O)C[C@@H]2CC[C@H]3[C@@H]4CC[C@H](OC(=O)c5cccc6cc7ccccc7nc56)[C@H]4CC[C@@H]3[C@H]21`, the TGI in experiment [2] was 22.8 µM; in [7], 37 µM; in [8], 26.3 µM; in experiment [3] it was 30.4 µM; in [4] it was 20.1 µM; in experiment [9], 27.1 µM. Further, the TGI was determined as 77.6 µM in experiment [5] and 37.5 µM in experiment [6].

On to `C/C(N=NS(=O)(=O)c1ccc([N+](=O)[O-])cc1)=C1\C=CC=CN1O`, for which the TGI in experiment [1], in experiment [3], in [4], in experiment [5] and in [6] was over 100 µM in each case.

`NC(=S)N1N=C2c3ccccc3CC[C@H]2[C@@H]1c1ccc(Cl)cc1`: the TGI is 61.6 µM in experiment [1]; 52.6 µM in experiment [2]; 97.7 µM in experiment [3]; 35.4 µM in experiment [4]; over 100 µM in experiment [5]; over 100 µM in experiment [6].

Regarding `O=c1[nH]c(=O)n(COCc2ccccc2)cc1Nc1ccc(Br)cc1`, the TGI in experiment [1], in experiment [10], in experiment [8], in experiment [3], in experiment [9] and in experiment [5] was over 100 µM throughout. For the same molecule, the TGI in [6] is over 100 µM.

Regarding `NCCN1C(=O)c2ccccc2C1c1ccc(Cl)cc1` (stereo not drawn), the TGI in experiment [1], in experiment [10], in experiment [7], in experiment [8], in [3] and in [9] was over 100 µM each time. Also, the TGI in [5] and in experiment [6] was over 100 µM in each case.

As for `Cc1cc(S(=O)(=O)Nc2n[nH]c(N)n2)c(Cl)cc1Cl`, the TGI in experiment [1], in experiment [2], in experiment [7], in experiment [8], in [3] and in experiment [4] was over 10 µM throughout. Besides, the TGI in [9], in experiment [5] and in [6] was over 10 µM throughout.

As to `O=C(/C=C(\C(=O)c1cccs1)c1cccs1)c1ccc(C(=O)/C=C(\C(=O)c2cccs2)c2cccs2)cc1`, the TGI in experiment [1], in experiment [10], in [7], in [9], in experiment [5] and in [6] was over 100 µM in each case.

For `COc1cc2c(/C=C3/C(=O)N(C)c4ccc(O)cc43)c(Cl)[nH]c2cc1C`, the TGI in [1] is 3.02 µM; in experiment [10] it was 33.4 µM; in experiment [7], 15 µM; in [3], 3.28 µM; in experiment [4], 16.6 µM; in [9] it was 20.8 µM. For the same molecule, the TGI in experiment [5] came to 2.93 µM; in experiment [6] it was 5.35 µM.

As to `Cn1cc(C(=O)c2ccccc2)cc(C(=O)c2ccccc2)c1=O`, the TGI in experiment [1], in experiment [2], in experiment [3], in experiment [4], in [5] and in experiment [6] was over 100 µM each time.

Turning to `NC(Cc1ccc2nc3c4ccccc4c(=O)cc-3oc2c1)C(=O)O` (stereo not drawn), the TGI in experiment [1] is over 100 µM; in experiment [2] it was 36.8 µM; in experiment [10], 41.4 µM; in experiment [7] it was over 100 µM; in experiment [8], 29.4 µM; in experiment [3], 65.1 µM. For the same molecule, the TGI in experiment [9], in [5] and in experiment [6] was over 100 µM in each case.

As for `CC(=O)OC1[C@H](OC(C)=O)C2=C(C)[C@@H](OC(C)=O)C[C@@]2(C(C)(C)O)[C@@H](OC(C)=O)[C@H]2[C@@]1(C)[C@@H](OC(C)=O)CC(OC(C)=O)[C@]21CO1` (stereo partly drawn), the TGI in experiment [1], in experiment [2], in experiment [10], in experiment [8], in experiment [3] and in experiment [4] was over 100 µM in each case. The TGI in experiment [9], in experiment [5] and in experiment [6] was over 100 µM in each case.

As for `CCn1c(CCl)nc2c1C(=O)c1ccccc1C2=O`, the TGI in experiment [1] turned out to be 6.85 µM; in [2], 2.41 µM; in [10], 3.79 µM; in experiment [8], 3.85 µM; in experiment [3] it was 3.12 µM; in experiment [9], 4.53 µM. For the same molecule, the TGI was 3.54 µM in experiment [5] and 3.59 µM in [6].

As for `Cc1c2c(n(CC(c3ccccc3)c3ccccc3)c1C)NN=C(C#N)S2(=O)=O`, the TGI in experiment [10], in [7], in [8], in experiment [3], in experiment [4] and in [9] was over 100 µM each time. The TGI in experiment [5] and in experiment [6] was over 100 µM in each case.

`O=C1CN(c2cccc(Cl)c2)C(=O)CN1NCNN1CC(=O)N(c2cccc(Cl)c2)CC1=O`: the TGI in experiment [1], in experiment [2], in [10], in experiment [8], in experiment [3] and in [4] was over 100 µM each time. The TGI in experiment [9], in experiment [5] and in experiment [6] was over 100 µM throughout.

As to `OC1(c2ccc(Cl)cc2)c2ccccc2-c2nc3ccccc3n21` (stereo not drawn), the TGI in experiment [1], in experiment [10], in experiment [7], in experiment [8], in experiment [3] and in experiment [4] was over 100 µM each time. The TGI in experiment [9] is over 100 µM; in [5], over 100 µM; in [6], 97.3 µM.

Turning to `C[C@]12CC(c3ccccc3O1)C(C(=O)Nc1nc(C34CC5CC(CC(C5)C3)C4)cs1)C(=O)N2` (stereo partly drawn), the TGI in experiment [1], in experiment [2], in experiment [10], in experiment [7], in experiment [3] and in experiment [9] was over 100 µM in each case. The molecule further came in with a TGI in [6] of over 100 µM.

In the case of `C#CCN(Cc1ccc2nc(-c3ccccc3)c(N)nc2c1)c1cc(OC)c(OC)c(OC)c1`, the TGI in experiment [1] was 41.4 µM; in experiment [2], 83.3 µM; in [3] it was over 100 µM; in [4], 64.3 µM; in [5] it was 66 µM; in experiment [6], over 100 µM.

Turning to `O=c1[nH]cnc2c(COCCO)c[nH]c12`, the TGI in experiment [1], in experiment [2], in experiment [3], in experiment [4], in experiment [5] and in [6] was over 100 µM each time.

For `C(=Nc1ccc(-c2nc3ccccc3s2)cc1)c1ccc[nH]1`, the TGI in [1] stood at 72.6 µM; in experiment [2], 32.2 µM; in experiment [8], 33.6 µM; in experiment [3] it was 37 µM; in experiment [4] it was 28 µM; in [9], 31.5 µM. The figures for the TGI in experiment [5] and in experiment [6] were 27.9 µM and over 100 µM, respectively.

As to `Cc1nc2cc(Nc3ccccc3C(=O)O)ccc2s1`, the TGI in experiment [1], in experiment [2], in experiment [3], in experiment [4], in experiment [5] and in experiment [6] was over 100 µM in each case.

Turning to `CCn1c2ccccc2c2c(-c3ccccc3)cc3c(c21)C(=O)N(c1ccccc1)C3=O`, the TGI in experiment [1], in [2], in experiment [3], in [4], in experiment [5] and in experiment [6] was over 100 µM throughout.

Consider `Cn1cc(S(=O)(=O)NC(=O)Nc2ccc(Cl)cc2)c(=O)c2ccc(F)cc21`, for which the TGI in experiment [1], in experiment [2], in experiment [7], in [8], in experiment [3] and in experiment [4] was over 100 µM throughout. Also, the TGI in experiment [9], in experiment [5] and in [6] was over 100 µM throughout.

Consider `Cc1ccc(C2(c3ccc(F)cc3)OC(=O)c3ccccc32)c(O)c1` (stereo not drawn), for which the TGI in experiment [1] was determined as 41.9 µM; in experiment [10], 37.5 µM; in [7] it was 46.1 µM; in [8] it was 24.3 µM; in [3], 44.9 µM; in experiment [4] it was 35.9 µM. Further, the TGI in experiment [5] was 24.5 µM; in experiment [6] it was 38.1 µM.

On to `CCCCCCCCCCCCCC[n+]1ccc(C)cc1`, for which the GI50 in [1] is 0.338 µM; in experiment [7], 1.34 µM; in experiment [3] it was 0.504 µM; in [9], 0.455 µM; in experiment [5], 3.25 µM; in [6] it was 1.46 µM. Also, the TGI was 1.19 µM in experiment [1]; 3.7 µM in experiment [7]; 2.51 µM in experiment [3]; 2.63 µM in experiment [9]; 17.8 µM in [5]; 4.02 µM in experiment [6].

As for `CCc1c(-c2ccc(OC)cc2)oc(OC)c(C)c1=O`, the TGI in experiment [10], in experiment [7], in [3], in experiment [4], in [9] and in experiment [5] was over 100 µM each time. The molecule further came in with a TGI in experiment [6] of over 100 µM.

As to `COc1cc(C(C)O)c[n+](CCC2CNc3ccccc32)c1` (stereo not drawn), the TGI in experiment [1], in experiment [2], in experiment [3], in [4], in [5] and in [6] was over 100 µM each time.

As to `COc1cc(-c2c3c(cc4c2OCO4)[C@@H](Nc2ccc(-c4ccc(-c5ccc(N[C@@H]6c7cc8c(cc7C(c7cc(OC)c(O)c(OC)c7)[C@H]7C(=O)OC[C@H]67)OCO8)cc5)cc4)cc2)[C@H]2COC(=O)[C@@H]2C3)cc(OC)c1O` (stereo partly drawn), the TGI in experiment [2] came to 7.4 µM; in experiment [10], 12.1 µM; in experiment [7] it was 6 µM; in experiment [3], 20.7 µM; in experiment [9] it was 8.37 µM; in experiment [5], 3.82 µM. Further, the TGI in experiment [6] came out at 12.5 µM.

With `COc1cc2c(cc1OC)C(=O)/C(=C/c1cc(C)cc(C)c1)C2`, the TGI in experiment [10] is over 31.9 µM; in experiment [7] it was 7.44 µM; in experiment [8], 0.0621 µM; in experiment [3] it was over 68 µM; in [4], over 46.8 µM; in [9], 24.2 µM. Also, the TGI in experiment [6] was over 89.1 µM.

For the molecule `O=C(/C(=C\I)c1ccccc1)c1ccccc1`, the TGI turned out to be 2.57 µM in experiment [1]; 21.2 µM in experiment [2]; 4.22 µM in [10]; 17.4 µM in [7]; 25.9 µM in experiment [3]; 22.5 µM in experiment [4]. The TGI came to 7.38 µM in experiment [9], 32.9 µM in experiment [5] and 23.1 µM in experiment [6].

Regarding `CN(CCc1ccccn1)C(=S)N/N=C(\c1ccccc1)c1ccccn1`, the TGI in experiment [1] is over 100 µM; in experiment [2], 3.14 µM; in [10] it was over 100 µM; in experiment [8], 8.51 µM; in experiment [3], 4.26 µM; in [4], 5.22 µM. For the same molecule, the figures for the TGI in experiment [9], in experiment [5] and in experiment [6] were 6.67 µM, 2.7 µM and 9.07 µM, respectively.

With `C=C(Cl)C(Cl)(CCl)CCC(Br)C(C)(C)Br` (stereo not drawn), the TGI in experiment [1], in experiment [10], in experiment [7], in experiment [8], in experiment [3] and in experiment [4] was over 10 µM each time. Also, the TGI in experiment [9], in experiment [5] and in experiment [6] was over 10 µM in each case.
